Measured values: US7563862B2, “Neural regeneration peptides and methods for their use in treatment of brain damage” (Neuren Pharmaceuticals Limited, priority 2001, dated 2009)
Ends that are not written are not given here.

Test system: mouse forebrain neural stem cells
Test: neurosphere expansion assay, shift from symmetric to asymmetric division of neural stem cells
Format: cell-based
Settings: nanomolar concentrations
From the text: To determine whether NRPs could induce a shift of cells within neurospheres from symmetric (two stem cells, both stem cells) to asymmetric division of neural stem cells (1 stem cell, 1 neuronal progenitor or neuroblast cell), as has been described for erythropoietin (EPO) by Shingo et al. (2001), neurospheres were dissociated by trituration and seeded for expansion at a density of 200,000 cells/well in 6 well plates in NSA medium with EGF only, EGF plus varying concentrations of an NRP, or EGF plus 10 U/ml EPO. One half of the medium with fresh NRP compound was exchanged every other day. After 7 days the cells from the neurospheres were plated. In the presence of EGF, cells retain symmetric cell division. With the removal of EGF, cells begin to differentiate (asymmetric cell division). Subsequently, the cells were subjected to a differentiation assay as described below, with the exception that bFGF was not added to the plating medium for the initial 24 h and differentiation for 7 days was allowed in control medium without NRPs or other compounds. In cells that had never been exposed to an NRP, the numbers of neuroblast cells were lower than in cells that had been exposed to an NRP or EPO. Therefore, NRPs can increase the differentiation of undifferentiated stem cells into neuroblast cells.

KDPEARRAPGSLHPCLAAS-NH2 [NRP-2 segment KS, 19-mer fragment of NRP-2]
production of neuronal progenitors: promoted the production of neuronal progenitors at the expense of multipotent stem cells
